# Data: patent US11191820B2, “Method for inducing early T memory response with short peptides anti-tumor vaccine” (OSE IMMUNOTHERAPEUTICS, priority 2015, dated 2021)
# What was measured:
# central memory T cells [1] = experiment: Central memory T cell cultured ELISPOT, phase 2 trial in advanced NSCLC; format: in vivo, human
# Summary of the method: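 Patient PBMC were pre-stimulated for 10 days with 10 μg/ml peptide plus rIL2 (10 U/ml, days 1, 4, 7), then replated at 5×10^4/well with irradiated autologous PBMC and 10 μg/ml peptide, and SFC were counted. A response was positive if >5 SFC above, and > mean+2 SD of, the irrelevant HBV epitope, and twofold the pre-vaccination response plus 2 SD.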
# central memory T cells [2] = experiment: Cultured IFN-γ ELISPOT after 10-day in vitro stimulation of PBMC, phase 1/2 colon cancer trial of OSE-2101; format: in vivo, human; set-up: key to net SFC of vaccine positive CTL responses: —, indicates SFC response did not meet criteria and vaccine response was negative; conditions: for Mean SFC: 10 colon patients
# Summary of the method: (§1)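 Patient PBMC (pre-treatment, Week 9, Week 18, after s.c. dosing every 3 weeks) were stimulated 10 days with 10 μg/ml of each epitope plus rIL-2 10 U/ml on days 1, 4 and 7. Cells were then tested 20 h with irradiated autologous PBMC and 10 μg/ml vaccine or wild-type peptide. Net SFC per 5×10^4 cells, irrelevant HBV peptide subtracted.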
# central memory T cells [3] = experiment: Cultured IFN-γ ELISPOT after 10-day in vitro stimulation of PBMC, phase 1/2 NSCLC trial of OSE-2101; format: in vivo, human; set-up: key to net SFC of vaccine positive CTL responses: —, indicates SFC response did not meet criteria and vaccine response was negative; conditions: for Mean SFC / No. Positive Responses: 6 NSCLC patients
# Summary of the method: as §1
# advanced NSCLC = conditions: phase 3 study in squamous NSCLC (Brahmer 2015); cited from earlier work
substance,measurement,setting,value
YLQLVFGIEV [MAGE2.157 WT],% of patients with positive CTL/central memory T cell response,"central memory T cells [1]; phase 2, month 9",57%
same,patients with positive CTL/central memory T cell response / patients tested,"central memory T cells [1]; phase 2, month 9",4/7
same,% of patients with positive CTL/central memory T cell response,"central memory T cells [1]; phase 2, month 12",50%
same,patients with positive CTL/central memory T cell response / patients tested,"central memory T cells [1]; phase 2, month 12",2/4
same,% of patients with positive CTL/central memory T cell response,"central memory T cells [1]; phase 2, week 9",27%
same,patients with positive CTL/central memory T cell response / patients tested,"central memory T cells [1]; phase 2, week 9",9/33
same,% of patients with positive CTL/central memory T cell response,"central memory T cells [1]; phase 2, week 18",28%
same,patients with positive CTL/central memory T cell response / patients tested,"central memory T cells [1]; phase 2, week 18",9/32
same,% of patients with positive CTL/central memory T cell response,"central memory T cells [1]; phase 2, week 30",43%
same,patients with positive CTL/central memory T cell response / patients tested,"central memory T cells [1]; phase 2, week 30",10/23
same,Mean SFC,central memory T cells [2]; Week 9,"246.0 SFC per 50,000 cells"
same,Mean SFC,central memory T cells [2]; Week 18,"418.1 SFC per 50,000 cells"
same,net SFC of vaccine positive CTL responses,"central memory T cells [2]; colon patient 551, Week 9",—
same,net SFC of vaccine positive CTL responses,"central memory T cells [2]; colon patient 551, Week 18","45.7 SFC per 50,000 cells"
same,net SFC of vaccine positive CTL responses,"central memory T cells [2]; colon patient 601, Week 9",—
same,net SFC of vaccine positive CTL responses,"central memory T cells [2]; colon patient 601, Week 18",—
same,net SFC of vaccine positive CTL responses,"central memory T cells [2]; colon patient 602, Week 9",—
same,net SFC of vaccine positive CTL responses,"central memory T cells [2]; colon patient 602, Week 18",—
same,net SFC of vaccine positive CTL responses,"central memory T cells [2]; colon patient 603, Week 9","320.0 SFC per 50,000 cells"
same,net SFC of vaccine positive CTL responses,"central memory T cells [2]; colon patient 603, Week 18",—
same,net SFC of vaccine positive CTL responses,"central memory T cells [2]; colon patient 604, Week 9",—
same,net SFC of vaccine positive CTL responses,"central memory T cells [2]; colon patient 604, Week 18",—
same,net SFC of vaccine positive CTL responses,"central memory T cells [2]; colon patient 605, Week 9",—
same,net SFC of vaccine positive CTL responses,"central memory T cells [2]; colon patient 605, Week 18",—
same,net SFC of vaccine positive CTL responses,"central memory T cells [2]; colon patient 606, Week 9",—
same,net SFC of vaccine positive CTL responses,"central memory T cells [2]; colon patient 606, Week 18","24.7 SFC per 50,000 cells"
same,net SFC of vaccine positive CTL responses,"central memory T cells [2]; colon patient 607, Week 9","172.0 SFC per 50,000 cells"
same,net SFC of vaccine positive CTL responses,"central memory T cells [2]; colon patient 607, Week 18","1184.0 SFC per 50,000 cells"
same,net SFC of vaccine positive CTL responses,"central memory T cells [2]; colon patient 608, Week 9",—
same,net SFC of vaccine positive CTL responses,"central memory T cells [2]; colon patient 608, Week 18",—
same,net SFC of vaccine positive CTL responses,"central memory T cells [2]; colon patient 609, Week 9",—
same,net SFC of vaccine positive CTL responses,"central memory T cells [2]; colon patient 609, Week 18",—
same,Mean SFC,central memory T cells [3]; Week 9,"30.0 SFC per 50,000 cells"
same,No. Positive Responses,central memory T cells [3]; Week 9,2
same,Mean SFC,central memory T cells [3]; Week 18,"66.8 SFC per 50,000 cells"
same,No. Positive Responses,central memory T cells [3]; Week 18,2
same,net SFC of vaccine positive CTL responses,"central memory T cells [3]; NSCLC patient 201, Week 9",—
same,net SFC of vaccine positive CTL responses,"central memory T cells [3]; NSCLC patient 201, Week 18",—
same,net SFC of vaccine positive CTL responses,"central memory T cells [3]; NSCLC patient 502, Week 9","9.3 SFC per 50,000 cells"
same,net SFC of vaccine positive CTL responses,"central memory T cells [3]; NSCLC patient 502, Week 18",—
same,net SFC of vaccine positive CTL responses,"central memory T cells [3]; NSCLC patient 504, Week 9","50.7 SFC per 50,000 cells"
same,net SFC of vaccine positive CTL responses,"central memory T cells [3]; NSCLC patient 504, Week 18","124.7 SFC per 50,000 cells"
same,net SFC of vaccine positive CTL responses,"central memory T cells [3]; NSCLC patient 505, Week 9",—
same,net SFC of vaccine positive CTL responses,"central memory T cells [3]; NSCLC patient 505, Week 18",—
same,net SFC of vaccine positive CTL responses,"central memory T cells [3]; NSCLC patient 532, Week 9",—
same,net SFC of vaccine positive CTL responses,"central memory T cells [3]; NSCLC patient 532, Week 18",—
same,net SFC of vaccine positive CTL responses,"central memory T cells [3]; NSCLC patient 651, Week 9",—
same,net SFC of vaccine positive CTL responses,"central memory T cells [3]; NSCLC patient 651, Week 18","9.0 SFC per 50,000 cells"
YLSGADLNL [CEA.605D6 A],% of patients with positive CTL/central memory T cell response,"central memory T cells [1]; phase 2, month 9",14%
same,patients with positive CTL/central memory T cell response / patients tested,"central memory T cells [1]; phase 2, month 9",1/7
same,% of patients with positive CTL/central memory T cell response,"central memory T cells [1]; phase 2, month 12",25%
same,patients with positive CTL/central memory T cell response / patients tested,"central memory T cells [1]; phase 2, month 12",1/4
same,% of patients with positive CTL/central memory T cell response,"central memory T cells [1]; phase 2, week 9",27%
same,patients with positive CTL/central memory T cell response / patients tested,"central memory T cells [1]; phase 2, week 9",9/33
same,% of patients with positive CTL/central memory T cell response,"central memory T cells [1]; phase 2, week 18",31%
same,patients with positive CTL/central memory T cell response / patients tested,"central memory T cells [1]; phase 2, week 18",10/32
same,% of patients with positive CTL/central memory T cell response,"central memory T cells [1]; phase 2, week 30",35%
same,patients with positive CTL/central memory T cell response / patients tested,"central memory T cells [1]; phase 2, week 30",8/23
same,Mean SFC,central memory T cells [2]; Week 9,"84.2 SFC per 50,000 cells"
same,Mean SFC,central memory T cells [2]; Week 18,"283.3 SFC per 50,000 cells"
same,net SFC of vaccine positive CTL responses,"central memory T cells [2]; colon patient 551, Week 9",—
same,net SFC of vaccine positive CTL responses,"central memory T cells [2]; colon patient 551, Week 18",—
same,net SFC of vaccine positive CTL responses,"central memory T cells [2]; colon patient 601, Week 9","88.3 SFC per 50,000 cells"
same,net SFC of vaccine positive CTL responses,"central memory T cells [2]; colon patient 601, Week 18",—
same,net SFC of vaccine positive CTL responses,"central memory T cells [2]; colon patient 602, Week 9",—
same,net SFC of vaccine positive CTL responses,"central memory T cells [2]; colon patient 602, Week 18",—
same,net SFC of vaccine positive CTL responses,"central memory T cells [2]; colon patient 603, Week 9","114.7 SFC per 50,000 cells"
same,net SFC of vaccine positive CTL responses,"central memory T cells [2]; colon patient 603, Week 18",—
same,net SFC of vaccine positive CTL responses,"central memory T cells [2]; colon patient 604, Week 9","70.0 SFC per 50,000 cells"
same,net SFC of vaccine positive CTL responses,"central memory T cells [2]; colon patient 604, Week 18","413.3 SFC per 50,000 cells"
same,net SFC of vaccine positive CTL responses,"central memory T cells [2]; colon patient 605, Week 9",—
same,net SFC of vaccine positive CTL responses,"central memory T cells [2]; colon patient 605, Week 18",—
same,net SFC of vaccine positive CTL responses,"central memory T cells [2]; colon patient 606, Week 9",—
same,net SFC of vaccine positive CTL responses,"central memory T cells [2]; colon patient 606, Week 18",—
same,net SFC of vaccine positive CTL responses,"central memory T cells [2]; colon patient 607, Week 9","72.7 SFC per 50,000 cells"
same,net SFC of vaccine positive CTL responses,"central memory T cells [2]; colon patient 607, Week 18","414.7 SFC per 50,000 cells"
same,net SFC of vaccine positive CTL responses,"central memory T cells [2]; colon patient 608, Week 9",—
same,net SFC of vaccine positive CTL responses,"central memory T cells [2]; colon patient 608, Week 18",—
same,net SFC of vaccine positive CTL responses,"central memory T cells [2]; colon patient 609, Week 9","75.3 SFC per 50,000 cells"
same,net SFC of vaccine positive CTL responses,"central memory T cells [2]; colon patient 609, Week 18","22.0 SFC per 50,000 cells"
same,Mean SFC,central memory T cells [3]; Week 9,"20.7 SFC per 50,000 cells"
same,No. Positive Responses,central memory T cells [3]; Week 9,1
same,Mean SFC,central memory T cells [3]; Week 18,"137.5 SFC per 50,000 cells"
same,No. Positive Responses,central memory T cells [3]; Week 18,2
same,net SFC of vaccine positive CTL responses,"central memory T cells [3]; NSCLC patient 201, Week 9",—
same,net SFC of vaccine positive CTL responses,"central memory T cells [3]; NSCLC patient 201, Week 18",—
same,net SFC of vaccine positive CTL responses,"central memory T cells [3]; NSCLC patient 502, Week 9",—
same,net SFC of vaccine positive CTL responses,"central memory T cells [3]; NSCLC patient 502, Week 18",—
same,net SFC of vaccine positive CTL responses,"central memory T cells [3]; NSCLC patient 504, Week 9","20.7 SFC per 50,000 cells"
same,net SFC of vaccine positive CTL responses,"central memory T cells [3]; NSCLC patient 504, Week 18","214.3 SFC per 50,000 cells"
same,net SFC of vaccine positive CTL responses,"central memory T cells [3]; NSCLC patient 505, Week 9",—
same,net SFC of vaccine positive CTL responses,"central memory T cells [3]; NSCLC patient 505, Week 18","60.7 SFC per 50,000 cells"
same,net SFC of vaccine positive CTL responses,"central memory T cells [3]; NSCLC patient 532, Week 9",—
same,net SFC of vaccine positive CTL responses,"central memory T cells [3]; NSCLC patient 532, Week 18",—
same,net SFC of vaccine positive CTL responses,"central memory T cells [3]; NSCLC patient 651, Week 9",—
same,net SFC of vaccine positive CTL responses,"central memory T cells [3]; NSCLC patient 651, Week 18",—
nivolumab,median PFS,advanced NSCLC,3.5 months
